Measured values taken from patent publication US20260062443A1 (ALEXION PHARMACEUTICALS, INC., priority 2022, published 2026).

What follows are compounds tested against T1, Human complement C1s enzyme (Homo sapiens, UniProt P09871) (assay: Human C1s enzyme assay). Settings: human complement C1s enzyme 1.16 nM, substrate Z-L-Lys-SBzl 100 μM, 5 min preincubation; read-out: IC50 (Stars), C1s Inhibiting Activity.
T1 sequence (P09871 438-688 limits assumed): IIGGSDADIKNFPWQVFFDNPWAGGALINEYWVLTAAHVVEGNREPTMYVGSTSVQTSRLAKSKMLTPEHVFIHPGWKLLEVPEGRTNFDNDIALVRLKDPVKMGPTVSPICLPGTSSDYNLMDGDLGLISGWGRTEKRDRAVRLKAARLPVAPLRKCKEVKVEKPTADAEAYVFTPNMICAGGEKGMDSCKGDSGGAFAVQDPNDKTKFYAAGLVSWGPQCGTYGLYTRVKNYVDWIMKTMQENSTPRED
T1 sequence (P09871 16-437 partner limits assumed): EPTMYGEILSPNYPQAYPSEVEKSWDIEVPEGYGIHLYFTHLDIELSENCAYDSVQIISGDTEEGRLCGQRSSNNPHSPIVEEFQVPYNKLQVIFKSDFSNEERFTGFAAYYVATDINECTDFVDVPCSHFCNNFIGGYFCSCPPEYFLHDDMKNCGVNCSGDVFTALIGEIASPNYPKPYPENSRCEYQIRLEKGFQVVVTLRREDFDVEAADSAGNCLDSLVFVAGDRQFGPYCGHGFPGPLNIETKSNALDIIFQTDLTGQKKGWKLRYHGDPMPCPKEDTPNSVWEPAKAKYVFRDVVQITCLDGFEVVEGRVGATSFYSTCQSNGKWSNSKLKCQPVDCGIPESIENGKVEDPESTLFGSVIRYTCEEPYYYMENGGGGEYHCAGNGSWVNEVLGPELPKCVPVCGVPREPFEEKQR
Assay type: biochemical
Experimental: Other standard complement assays are also available.
Human complement C1s enzyme (purified from human serum, Complement Technology, Inc.) at 1.16 nM final concentration was incubated with test compound at various concentrations for 5 min at room temperature in 50 mM Tris, 1 M NaCl, pH 7.5. A synthetic substrate Z-L-Lys-SBzl and DTNB (Ellman's reagent) were added to final concentrations of 100 μM each. Absorbance at 405 nm (A405) was recorded at 30 second intervals for 30 min using a microplate spectrophotometer. IC50 values were calculated by nonlinear regression of complement C1 s reaction rates as a function of test compound concentration.
ND indicates a compound for which the IC50 value is not determined.

Compound | IC50
C[C@H](NC(=O)[C@@H]1CC2(CN1C(=O)CNC(=O)c1ccc3c(c1)-c1ccccc1C3(F)F)OCCO2)c1cc2cnccc2[nH]1 [Compound 23, (S)-N-((S)-1-(1H-pyrrolo[3,2-c]pyridin-2-yl)ethyl)-7-((9,9-difluoro-9H-fluorene-3-carbonyl)glycyl)-1,4-dioxa-7-azaspiro[4.4]nonane-8-carboxamide] | > 1000 nM
O=C(NCC(=O)N1CC2(C[C@H]1C(=O)NCc1cc3ccccc3[nH]1)OCCO2)c1ccc2c(c1)Oc1ccccc1S2 [Compound 29, (S)-N-((1H-indol-2-yl)methyl)-7-((phenoxathiine-3-carbonyl)glycyl)-1,4-dioxa-7-azaspiro[4.4]nonane-8-carboxamide] | > 1000 nM
O=C(NCC(=O)N1CC2(C[C@H]1C(=O)NCc1nc3cnccc3o1)OCCO2)c1ccc2c(c1)Oc1ccccc1S2 [Compound 31, (S)-N-(oxazolo[4,5-c]pyridin-2-ylmethyl)-7-((phenoxathiine-3-carbonyl)glycyl)-1,4-dioxa-7-azaspiro[4.4]nonane-8-carboxamide] | > 1000 nM
O=C(NCC(=O)N1CC2(C[C@H]1C(=O)NCc1cc3cnccc3[nH]1)OCCO2)c1ccc(C(=O)c2ccccc2)cc1 [Compound 33, (S)-N-((1H-pyrrolo[3,2-c]pyridin-2-yl)methyl)-7-((4-benzoylbenzoyl)glycyl)-1,4-dioxa-7-azaspiro[4.4]nonane-8-carboxamide] | < 100 nM
O=C(NCC(=O)N1CC2(C[C@H]1C(=O)NCc1cc3ncccc3[nH]1)OCCO2)c1ccc2c(c1)-c1ccccc1C2(F)F [Compound 34, (S)-N-((1H-pyrrolo[3,2-b]pyridin-2-yl)methyl)-7-((9,9-difluoro-9H-fluorene-3-carbonyl)glycyl)-1,4-dioxa-7-azaspiro[4.4]nonane-8-carboxamide] | > 1000 nM
O=C(NCC(=O)N1CC2(C[C@H]1C(=O)NCc1cc3cnccc3[nH]1)OCCO2)c1ccc2oc3ccccc3c2c1 [Compound 35, (S)-N-((1H-pyrrolo[3,2-c]pyridin-2-yl)methyl)-7-((dibenzo[b,d]furan-2-carbonyl)glycyl)-1,4-dioxa-7-azaspiro[4.4]nonane-8-carboxamide] | < 100 nM
O=C(NCC(=O)N1C[C@H](OC(F)F)C[C@H]1C(=O)NCc1cc2cnccc2[nH]1)c1ccc2c(c1)Oc1ccccc1S2 [Compound 36, (2S,4R)-N-((1H-pyrrolo[3,2-c]pyridin-2-yl)methyl)-4-(difluoromethoxy)-1-((phenoxathiine-3-carbonyl)glycyl)pyrrolidine-2-carboxamide] | < 100 nM
O=C(NCC(=O)N1CC2(C[C@H]1C(=O)NCc1cc3cnncc3[nH]1)OCCO2)c1ccc2c(c1)Oc1ccccc1S2 [Compound 37, (S)-N-((1H-pyrrolo[2,3-d]pyridazin-2-yl)methyl)-7-((phenoxathiine-3-carbonyl)glycyl)-1,4-dioxa-7-azaspiro[4.4]nonane-8-carboxamide] | < 100 nM
C[C@@H](NC(=O)[C@@H]1CC2(CN1C(=O)CNC(=O)c1ccc3c(c1)-c1ccccc1C3(F)F)OCCO2)c1cc2cnccc2[nH]1 [Compound 38, (S)-N-((R)-1-(1H-pyrrolo[3,2-c]pyridin-2-yl)ethyl)-7-((9,9-difluoro-9H-fluorene-3-carbonyl)glycyl)-1,4-dioxa-7-azaspiro[4.4]nonane-8-carboxamide] | < 100 nM
C[C@@H](NC(=O)[C@@H]1C[C@@H](OC(F)F)CN1C(=O)CNC(=O)c1ccc(Oc2ccccc2)cc1)c1cc2cnccc2[nH]1 [Compound 39, (2S,4R)-N-((R)-1-(1H-pyrrolo[3,2-c]pyridin-2-yl)ethyl)-4-(difluoromethoxy)-1-((4-phenoxybenzoyl)glycyl)pyrrolidine-2-carboxamide] | < 100 nM
COC[C@@]1(F)C[C@@H](C(=O)N[C@H](C)c2cc3cnccc3[nH]2)N(C(=O)CNC(=O)c2ccc(Oc3ccccc3)cc2)C1 [Compound 40, (2S,4R)-N-((R)-1-(1H-pyrrolo[3,2-c]pyridin-2-yl)ethyl)-4-fluoro-4-(methoxymethyl)-1-((4-phenoxybenzoyl)glycyl) pyrrolidine-2-carboxamide] | 100 to 1000 nM
O=C(NCC(=O)N1CC2(C[C@H]1C(=O)NCc1nc3cnccc3s1)OCCO2)c1ccc2c(c1)Oc1ccccc1S2 [Compound 41, (S)-7-((phenoxathiine-3-carbonyl)glycyl)-N-(thiazolo[4,5-c]pyridin-2-ylmethyl)-1,4-dioxa-7-azaspiro[4.4]nonane-8-carboxamide] | > 1000 nM
O=C(NCC(=O)N1CC2(C[C@H]1C(=O)NCc1cc3c(Cl)nccc3[nH]1)OCCO2)c1ccc2c(c1)Oc1ccccc1S2 [Compound 42, (S)-N-((4-chloro-1H-pyrrolo[3,2-c]pyridin-2-yl)methyl)-7-((phenoxathiine-3-carbonyl)glycyl)-1,4-dioxa-7-azaspiro[4.4]nonane-8-carboxamide] | > 1000 nM
O=C(NCC(=O)N1CC2(C[C@H]1C(=O)NCc1cc3cnc(Cl)cc3[nH]1)OCCO2)c1ccc2c(c1)Oc1ccccc1S2 [Compound 43, (S)-N-((6-chloro-1H-pyrrolo[3,2-c]pyridin-2-yl)methyl)-7-((phenoxathiine-3-carbonyl)glycyl)-1,4-dioxa-7-azaspiro[4.4]nonane-8-carboxamide] | > 1000 nM
C[C@@]12C[C@@H]1N(C(=O)CNC(=O)c1ccc3c(c1)Oc1ccccc1S3)[C@H](C(=O)NCc1cc3cnccc3[nH]1)C2 [Compound 44, (1S,3S,5S)-N-((1H-pyrrolo[3,2-c]pyridin-2-yl)methyl)-5-methyl-2-((phenoxathiine-3-carbonyl)glycyl)-2-azabicyclo[3.1.0]hexane-3-carboxamide] | < 100 nM
O=C(NCC(=O)N1CC2(C[C@H]1C(=O)NCc1cc3cncc(F)c3[nH]1)OCCO2)c1ccc2c(c1)Oc1ccccc1S2 [Compound 45, (S)-N-((7-fluoro-1H-pyrrolo[3,2-c]pyridin-2-yl)methyl)-7-((phenoxathiine-3-carbonyl)glycyl)-1,4-dioxa-7-azaspiro[4.4]nonane-8-carboxamide] | > 1000 nM

More lines, now with the values ahead:

IC50 | Compound
< 100 nM | O=C(NCC(=O)N1CC2(C[C@H]1C(=O)NCc1cc3cnccc3[nH]1)OCCO2)c1ccc2c(c1)Sc1ccccc1O2 [Compound 24, (S)-N-((1H-pyrrolo[3,2-c]pyridin-2-yl)methyl)-7-((phenoxathiine-2-carbonyl)glycyl)-1,4-dioxa-7-azaspiro[4.4]nonane-8-carboxamide]
< 100 nM | COC[C@@]1(F)C[C@@H](C(=O)NCc2cc3cnccc3[nH]2)N(C(=O)CNC(=O)c2ccc3c(c2)Oc2ccccc2S3)C1 [Compound 25, (2S,4R)-N-((1H-pyrrolo[3,2-c]pyridin-2-yl)methyl)-4-fluoro-4-(methoxymethyl)-1-((phenoxathiine-3-carbonyl)glycyl)pyrrolidine-2-carboxamide]
< 100 nM | O=C(NCC(=O)N1C[C@@](F)(CF)C[C@H]1C(=O)NCc1cc2cnccc2[nH]1)c1ccc2c(c1)Oc1ccccc1S2 [Compound 26, (2S,4R)-N-((1H-pyrrolo[3,2-c]pyridin-2-yl)methyl)-4-fluoro-4-(fluoromethyl)-1-((phenoxathiine-3-carbonyl)glycyl)pyrrolidine-2-carboxamide]
< 100 nM | CS(=O)(=O)[C@@H]1C[C@@H](C(=O)NCc2cc3cnccc3[nH]2)N(C(=O)CNC(=O)c2ccc3c(c2)Oc2ccccc2S3)C1 [Compound 27, (2S,4R)-N-((1H-pyrrolo[3,2-c]pyridin-2-yl)methyl)-4-(methylsulfonyl)-1-((phenoxathiine-3-carbonyl)glycyl)pyrrolidine-2-carboxamide]
< 100 nM | C[C@@]12C[C@@H]1N(C(=O)CNC(=O)c1ccc(Oc3ccccc3)cc1)[C@H](C(=O)NCc1cc3cnccc3[nH]1)C2 [Compound 28, (1S,3S,5S)-N-((1H-pyrrolo[3,2-c]pyridin-2-yl)methyl)-5-methyl-2-((4-phenoxybenzoyl)glycyl)-2-azabicyclo[3.1.0]hexane-3-carboxamide]
< 100 nM | COC[C@@]1(F)C[C@@H](C(=O)NCc2cc3cnccc3[nH]2)N(C(=O)CNC(=O)c2ccc(Oc3ccccc3)cc2)C1 [Compound 30, (2S,4R)-N-((1H-pyrrolo[3,2-c]pyridin-2-yl)methyl)-4-fluoro-4-(methoxymethyl)-1-((4-phenoxybenzoyl)glycyl) pyrrolidine-2-carboxamide]
< 100 nM | O=C(NCC(=O)N1CC2(C[C@H]1C(=O)NCc1cc3cnccc3[nH]1)OCCO2)c1ccc(Oc2ccccc2)cc1 [Compound 32, (S)-N-((1H-pyrrolo[3,2-]pyridin-2-yl)methyl)-7-((4-phenoxybenzoyl)glycyl)-1,4-dioxa-7-azaspiro[4.4]nonane-8-carboxamide]
